Measured values taken from PMC10534582, “A Pharmacokinetic Study of Sixteen Major Bioactive Components of Jinshui-Huanxian Granules in Pulmonary Fibrosis Model and Control Rats Using Orbitrap Fusion Mass Spectrometry” (Molecules, 2023).

Legend:
[1] = Pharmacokinetics of JHG components in control rats after intragastric administration of JHGs (plasma, Orbitrap Fusion MS); assay type: in vivo, Sprague Dawley (SD) rats; conditions: low, medium, high doses of JHGs
Experimental: (§1) Healthy male Sprague Dawley (SD) rats of SPF grade (240 ± 20 g) were purchased from Sipeifu (Beijing, China) Biotechnology Co., Ltd. (Beijing, China), Certificate of Conformity No.: SCYK (Beijing, China) 2019-0015, Animal Quality Certificate No.: 110324220102348616. They were housed in the Animal Center of Henan University of Traditional Chinese Medicine, which passed the ethical audit, ethics number: DWLL202208003, breeding Co. 24 °C, relative humidity 50 ± 2%. The animals fasted for 12 h before the experiment and drank water freely. All feeding and experimental studies on experimental animals were in accordance with the regulations on the Management of Experimental Animals in Henan Province.
(§2) Twenty-four healthy male SD rats or PF model rats, weighing 240 ± 20 g, fasted for 12 h before the experiment and drank water freely. Both kinds of rats were randomly divided into four groups. Blank group: equal dose of water by intragastric, low dose; administration group: rats were given the equivalent human dose of JHGs by intragastric, i.e., 10.8 g of raw drug/kg/d (5.70 g/kg/d); medium-dose administration group: 2 times the human equivalent dose of JHGs by intragastric, i.e., 21.6 g of raw drug/kg/d (11.41 g/kg/d); high-dose administration group: 4 times the human equivalent dose of JHG, i.e., 43.2 g of raw drug/kg/d (22.81 g/kg/d). Blood was collected from the tail vein before and 0.083, 0.25, 0.5, 0.75, 1, 1.5, 2, 3, 4, 6, 8, 12, 18, and 24 h after dosing, respectively. A total of 0.5 mL was placed in a heparin sodium centrifuge tube. Whole blood was left for 30 min and then centrifuged in a low-temperature freezing centrifuge (4 °C, 3000 r/min) for 15 min. The upper layer of plasma was collected and stored in a refrigerator at −80 °C.
(§3) We added 50 μL of internal standard solution and 800 μL of methanol, shook for 15 min, then centrifuged at 12,000 r/min for 10 min, took the supernatant, dried in a centrifuge concentrator, added 50 μL of the initial mobile phase to the residue, dissolved, centrifuged, then separated the upper layer of the solution used as the test solution. A total of 5 μL test solution was taken into the sample for analysis. For each compound with a certain dosage, the same procedure is repeated six times in parallel. The concentration in plasma was calculated by the internal standard method.
Accucore C18 (100 mm × 2.1 mm, 2.6 μm) column at 25 °C, the mobile phase was methanol (A)-0.1% formic acid aqueous solution (B). The gradient elution program was 0–4 min (65% B-40% B), 4–5 min (40% B-40% B), 5–6 min (40% B-28% B), and 6–7 min (28% B-19% B), 7–7.5 min (19% B-10% B), 7.5–11 min (10% B-0% B), the flow rate was 0.2 mL/min, and the injection volume was 5 μL.
The ion source was an electrospray ionization source (ESI). Nitrogen acted as a carrier gas. The sheath gas pressure was 35 Arb. The auxiliary gas pressure was 7 Arb. The spray voltage was 3.50 kv(+), 2.50 kv(-). The ion transport tube temperature was regulated at 300 °C. Gasification temperature was 275 °C. The resolution was 50,000. The scanning mode was set as SIM mode. The optimized parameters obtained are in Table 5.
Under the established Orbitrap Fusion MS method, the pharmacokinetics of JHG in rats were studied to investigate the dynamic changes of the active components in rats. The pharmacokinetic parameters of each component in each dosing group were calculated by […] model analysis using Kinetica 5.1 (Innaphase, Waltham, MA, USA) pharmacokinetic analysis software. The pharmacotemporal curves were plotted by the plotting software. SPSS 19.0 (IBM, Armonk, NY, USA) was used to analyze all the parameters. Independent sample tests were performed after natural logarithmic transformation for AUC0–t, Cmax. The nonparametric Mann–Whitney test was applied for Tmax, t½, and MRT0–t. p < 0.05 was considered statistically significant.

[2] = because of poor gastrointestinal absorption; cited from earlier work
[3] = Pharmacokinetics of JHG components in pulmonary fibrosis (PF) model rats after intragastric administration of JHGs (plasma, Orbitrap Fusion MS); assay type: in vivo, Sprague Dawley (SD) rats
Experimental: as §1
The PF model in rats was replicated by reference to the conclusion tracheal intubation method in the literature. After the rats were anesthetized, bleomycin (BLM) (5 mg/kg) was used as an induction agent and followed the tracheal intubation method. BLM solution was aspirated with a 1 mL syringe and injected into the indwelling syringe. A total of 0.3 mL of air was rapidly pushed into the syringe, the rats were immediately stroked upright so that the BLM solution was evenly distributed in both lungs. BLM was given on day 0 for modeling, then gavage was taken after day 28, with fasting without water for 12 h before sampling. The histopathological examination was performed to verify the construction of the PF model. The rats were anesthetized by the abdominal cavity, then the lung tissues were violently shocked by opening the chest, and the right lower lobe of the lung was taken and fixed in 4% formaldehyde solution, then dehydrated by sucrose gradient, paraffin-embedded, and sectioned. H&E and Masson staining were performed to observe the degree of alveolitis of lung tissue and the degree of pulmonary fibrosis, respectively. The inflammation and fibrosis of lung tissues was observed under the light microscope.
as §2, §3
Accucore C18 (100 mm × 2.1 mm, 2.6 μm) column at 25 °C, the mobile phase was methanol (A)-0.1% formic acid aqueous solution (B). The gradient elution program was 0–4 min (65% B-40% B), 4–5 min (40% B-40% B), 5–6 min (40% B-28% B), and 6–7 min (28% B-19% B), 7–7.5 min (19% B-10% B), 7.5–11 min (10% B-0% B), the flow rate was 0.2 mL/min, and the injection volume was 5 μL. […]

CC(C)=CCC[C@](C)(O[C@@H]1O[C@H](CO[C@@H]2OC[C@H](O)[C@H](O)[C@H]2O)[C@@H](O)[C@H](O)[C@H]1O)[C@H]1CC[C@]2(C)[C@@H]1[C@H](O)C[C@@H]1[C@@]3(C)CC[C@H](O[C@@H]4O[C@H](CO)[C@@H](O)[C@H](O)[C@H]4O[C@@H]4O[C@H](CO)[C@@H](O)[C@H](O)[C@H]4O)C(C)(C)[C@@H]3CC[C@]12C [Ginsenoside Rb2]
pharmacokinetic process (Cmax and AUCs versus dosage) [1]: linear pharmacokinetic process | bioavailability, oral administration [2]: low | pharmacokinetic process (versus dosage) ([3]; PF model rats, low, medium, high doses of JHGs): linear pharmacokinetic process | Tmax, PF model group compared with the control group ([3]; PF model vs control rats): slightly increased | reduction of Cmax in PF model group relative to control ([3]; PF model vs control rats): about 1/3 | Cmax, PF model group compared with the control group ([3]; PF model vs control rats, medium dose selected for comparison): significantly decreased | AUCs, PF model group compared with the control group ([3]; PF model vs control rats, p < 0.05): significantly decreased | Tmax ([3]; male, Sprague-Dawley, rat, plasma, po, PF model rats, after administration of JHGs, read-out: Tmax of all dosages): ≤ 2 h
